Experimental data reported in patent publication US10131642B1, “Aldosterone synthase inhibitors” (Boehringer Ingelheim International GmbH, priority 2015, dated 2018).

Key:
[1] = biological target: cortisol synthase (CYP11B1) (Macaca fascicularis, UniProt A0A2K5ULY1); test: Inhibition of cortisol synthesis (cynomolgus adrenal mitochondria, cortisol by mass spectrometry); format: biochemical, cynomolgus monkey; conditions: cynomolgus adrenal gland mitochondria, 11-deoxycortisol as substrate, cortisol measured as product; read-out: CYP11B1 Inhibition IC50
Protocol: The aldosterone synthase and cortisol synthase inhibition assays employ cynomolgus adrenal gland mitochondria as the source of aldosterone synthase (CYP11B2) and cortisol synthase (CYP11B1). Mitochondria are prepared from frozen cynomolgus monkey adrenal glands according to Method A described in by J. D. McGarry et al. (Biochem. J., 1983, 214, 21-28), with a final resuspension in the AT buffer described in R. Yamaguchi et al. (Cell Death and Differentiation, 2007, 14, 616-624), frozen as aliquots in liquid nitrogen and stored at −80° C. until use. Activity of CYP11B2 and CYP11B1 in these preparations is defined as the amount of enzyme that generates 1 pmol of product in one hour under the conditions described. Dose dependent inhibition is quantified by the inclusion of compound at various concentrations. Maximum activity (100%) is defined by reactions containing NADPH, but without compound. Activities at each concentration are expressed as a percentage of the maximum activity (y-axis) and plotted against concentration of compound (x-axis) and the concentration corresponding to 50% activity (IC50) determined using the XLFit curve-fitting program using a 4-parameter logistic model. Assays are performed as for aldosterone synthase except for the use of 150 units of CYP11B1, 11-deoxycortisol as substrate and cortisol measured as product.

[2] = biological target: T1, aldosterone synthase (CYP11B2) (Macaca fascicularis, UniProt A0A2K5UPL9); test: Inhibition of aldosterone synthase (cynomolgus adrenal mitochondria, aldosterone by mass spectrometry); format: biochemical, cynomolgus monkey; conditions: cynomolgus adrenal gland mitochondria, 2 μM corticosterone substrate, 90 minutes at 37° C.
T1 construct: cynomolgus adrenal gland mitochondria as the source of aldosterone synthase (CYP11B2); from tissue; host or cells: cynomolgus monkey adrenal gland mitochondria
T1 sequence (A0A2K5UPL9 1-503): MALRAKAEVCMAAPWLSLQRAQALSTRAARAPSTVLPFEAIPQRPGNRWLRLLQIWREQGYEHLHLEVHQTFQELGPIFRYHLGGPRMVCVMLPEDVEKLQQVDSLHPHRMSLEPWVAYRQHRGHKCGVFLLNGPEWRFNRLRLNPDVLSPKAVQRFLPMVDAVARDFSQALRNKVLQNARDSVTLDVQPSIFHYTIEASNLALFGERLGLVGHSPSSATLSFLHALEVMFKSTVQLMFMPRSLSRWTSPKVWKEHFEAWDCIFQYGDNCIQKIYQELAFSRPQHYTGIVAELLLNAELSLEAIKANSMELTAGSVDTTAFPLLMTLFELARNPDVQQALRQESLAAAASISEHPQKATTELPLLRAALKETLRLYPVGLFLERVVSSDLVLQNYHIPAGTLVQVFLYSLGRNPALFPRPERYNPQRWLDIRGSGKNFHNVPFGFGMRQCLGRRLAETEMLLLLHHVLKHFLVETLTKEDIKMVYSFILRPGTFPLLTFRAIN
Protocol: The aldosterone synthase and cortisol synthase inhibition assays employ cynomolgus adrenal gland mitochondria as the source of aldosterone synthase (CYP11B2) and cortisol synthase (CYP11B1). Mitochondria are prepared from frozen cynomolgus monkey adrenal glands according to Method A described in by J. D. McGarry et al. (Biochem. J., 1983, 214, 21-28), with a final resuspension in the AT buffer described in R. Yamaguchi et al. (Cell Death and Differentiation, 2007, 14, 616-624), frozen as aliquots in liquid nitrogen and stored at −80° C. until use. Activity of CYP11B2 and CYP11B1 in these preparations is defined as the amount of enzyme that generates 1 pmol of product in one hour under the conditions described.
Assays are performed in 96-well format in a final volume of 60 µL/well, containing 100 mM potassium phosphate, pH 7.4, 1% (v/v) DMSO, and additionally, 2 μM of corticosterone and 50 units of CYP11B2 activity. Reactions are started by the addition of NADPH to 1 mM and allowed to proceed for 90 minutes at 37° C. Reactions are terminated by the addition of 60 μL of MeCN containing an internal standard for mass spectrometry. One hundred microliters are then transferred to a glass filter plate and centrifuged at 570×g for 5 minutes and the filtrate is collected. Reaction product aldosterone is quantified by mass spectrometry. To determine the assay blank value (0% activity), NADPH is omitted from some reactions.
Dose dependent inhibition is quantified by the inclusion of compound at various concentrations. Maximum activity (100%) is defined by reactions containing NADPH, but without compound. Activities at each concentration are expressed as a percentage of the maximum activity (y-axis) and plotted against concentration of compound (x-axis) and the concentration corresponding to 50% activity (IC50) determined using the XLFit curve-fitting program using a 4-parameter logistic model.

Row | IC50 [1] | IC50 [2] | SMILES
1 | 23 µM | 330 nM | CC(C)C1CC(=O)c2c(noc2CC2CCN(C(N)=O)CC2)C1 (stereo not drawn) [Cpd 21, 4-(6-Isopropyl-4-oxo-4,5,6,7-tetrahydro-benzo[c]isoxazol-3-ylmethyl)-piperidine-l-carboxylic acid amide]
2 | 74 µM | 69 nM | CC1(C)CC(=O)c2c(noc2Cc2ccc(C#N)cc2)C1 [Cpd 23, 4-(6,6-Dimethyl-4-oxo-4,5,6,7-tetrahydro-benzo[c]isoxazol-3-ylmethyl)-benzonitrile]
3 | 7.6 µM | 200 nM | CC1CC(=O)c2c(noc2Cc2ccc(C#N)cc2)C1 (centres unmarked) [Cpd 36, 4-(6-Methyl-4-oxo-4,5,6,7-tetrahydro-benzo[c]isoxazol-3-ylmethyl)-benzonitrile]
4 | 2.6 µM | 73 nM | CC1(C)Cc2noc(Cc3ccc(C(=O)N4CC[C@@H](O)C4)cc3)c2C(=O)O1 [Cpd 93, 3-[4-((R)-3-Hydroxy-pyrrolidine-1-carbonyl)-benzyl]-6,6-dimethyl-6,7-dihydro-pyrano[4,3-c]isoxazol-4-one]
5 | 2.8 µM | 22 nM | CC(=O)N1CCC(Cc2onc3c2C(=O)CC(C(C)C)C3)CC1 (single isomer, unassigned) [Cpd 15A, 3-(1-Acetyl-piperidin-4-ylmethyl)-6-isopropyl-6,7-dihydro-5H-benzo[c]isoxazol-4-one]
6 | 25 µM | 190 nM | CC1(C)Cc2noc(Cc3ccc(F)cc3)c2C(=O)O1 [Cpd 88, 3-(4-Fluoro-benzyl)-6,6-dimethyl-6,7-dihydro-pyrano[4,3-c]isoxazol-4-one]
7 | 25 µM | 120 nM | COc1ccc(Cc2onc3c2C(=O)CC(C)(C)C3)cc1C#N [Cpd 34, 5-(6,6-Dimethyl-4-oxo-4,5,6,7-tetrahydro-benzo[c]isoxazol-3-ylmethyl)-2-methoxy-benzonitrile]
8 | 9.8 µM | 27 nM | COc1ccc(Cc2onc3c2C(=O)OC(C)(C)C3)cc1 [Cpd 89, 3-(4-Methoxy-benzyl)-6,6-dimethyl-6,7-dihydro-pyrano[4,3-c]isoxazol-4-one]
9 | 14 µM | 32 nM | CC1(C)CC(=O)c2c(noc2Cc2ccc(C(=O)N3CCCC3)cc2)C1 [Cpd 52, 6,6-Dimethyl-3-[4-(pyrrolidine-1-carbonyl)-benzyl]-6,7-dihydro-5H-benzo[c]isoxazol-4-one]
10 | 7.8 µM | 160 nM | CC1(C)CC(=O)c2c(noc2Cc2ccc(C(=O)NCCC#N)cc2)C1 [Cpd 68, N-(2-Cyano-ethyl)-4-(6,6-dimethyl-4-oxo-4,5,6,7-tetrahydro-benzo[c]isoxazol-3-ylmethyl)-benzamide]
11 | 11 µM | 92 nM | CN(CCO)C(=O)c1ccc(Cc2onc3c2C(=O)CC(C)(C)C3)cc1 [Cpd 59, 4-(6,6-Dimethyl-4-oxo-4,5,6,7-tetrahydro-benzo[c]isoxazol-3-ylmethyl)-N-(2-hydroxy-ethyl)-N-methyl-benzamide]
12 | 1.8 µM | 29 nM | CNC(=O)CCOc1ccc(Cc2onc3c2C(=O)CC(C)(C)C3)cc1 [Cpd 80, 3-[4-(6,6-Dimethyl-4-oxo-4,5,6,7-tetrahydro-benzo[c]isoxazol-3-ylmethyl)-phenoxy]-N-methyl-propionamide]
13 | 4.1 µM | 110 nM | O=C1CC(CC2CC2)Cc2noc(Cc3ccc(C(=O)N4CC[C@@H](O)C4)cc3)c21 (stereo partly drawn) [Cpd 63, 6-Cyclopropylmethyl-3-[4-((R)-3-hydroxy-pyrrolidine-1-carbonyl)-benzyl]-6,7-dihydro-5H-benzo[c]isoxazol-4-one]
14 | 4.3 µM | 42 nM | CC1(C)Cc2noc(Cc3ccc(C(=O)NCCS(C)(=O)=O)cc3)c2C(=O)O1 [Cpd 94, 4-(6,6-Dimethyl-4-oxo-6,7-dihydro-4H-pyrano[4,3-c]isoxazol-3-ylmethyl)-N-(2-methanesulfonyl-ethyl)-benzamide]
15 | 7.3 µM | 120 nM | CC(C)N(CCO)C(=O)c1ccc(Cc2onc3c2C(=O)CC(C)(C)C3)cc1 [Cpd 67, 4-(6,6-Dimethyl-4-oxo-4,5,6,7-tetrahydro-benzo[c]isoxazol-3-ylmethyl)-N-(2-hydroxy-ethyl)-N-isopropyl-benzamide]
16 | 0.59 µM | 17 nM | CC1(C)CC(=O)c2c(noc2Cc2ccc3c(c2)OCCO3)C1 [Cpd 3, 3-(2,3-Dihydro-benzo[1,4]dioxin-6-ylmethyl)-6,6-dimethyl-6,7-dihydro-5H-benzo[c]isoxazol-4-one]
17 | 7.7 µM | 110 nM | COc1ccc(Cc2onc3c2C(=O)CC(C)(C)C3)cn1 [Cpd 10, 3-(6-Methoxy-pyridin-3-ylmethyl)-6,6-dimethyl-6,7-dihydro-5H-benzo[c]isoxazol-4-one]
18 | 2.3 µM | 49 nM | O=C1CC(Cc2ccccc2)Cc2noc(Cc3ccccc3)c21 (centres unmarked) [Cpd 26, 3,6-Dibenzyl-6,7-dihydro-5H-benzo[c]isoxazol-4-one]
19 | 2.6 µM | 80 nM | O=C1CC(Cc2ccccc2)Cc2noc(Cc3ccc(C(=O)N4CC[C@@H](O)C4)cc3)c21 (stereo partly drawn) [Cpd 57, 6-Benzyl-3-[4-((R)-3-hydroxy-pyrrolidine-l-carbonyl)-benzyl]-6,7-dihydro-5H-benzo[c]isoxazol-4-one]
20 | 8.3 µM | 230 nM | CC(C)C1CC(=O)c2c(noc2Cc2ccc(C#N)cc2)C1 (single isomer, unassigned) [Cpd 39A, 4-(-6-Isopropyl-4-oxo-4,5,6,7-tetrahydro-benzo[c]isoxazol-3-ylmethyl)-benzonitrile]
21 | 9.3 µM | 140 nM | CC1(C)CC(=O)c2c(noc2Cc2cccc(C#N)c2)C1 [Cpd 11, 3-(6,6-Dimethyl-4-oxo-4,5,6,7-tetrahydro-benzo[c]isoxazol-3-ylmethyl)-benzonitrile]
22 | 23 µM | 230 nM | C[C@@H](O)CNC(=O)c1ccc(Cc2onc3c2C(=O)CC(C)(C)C3)cc1 [Cpd 73, 4-(6,6-Dimethyl-4-oxo-4,5,6,7-tetrahydro-benzo[c]isoxazol-3-ylmethyl)-N-((R)-2-hydroxy-propyl)-benzamide]
23 | 18 µM | 110 nM | CC(=O)N1CCC(Cc2onc3c2C(=O)CC(C(C)C)C3)CC1 (single isomer, unassigned) [Cpd 15B, 3-(1-Acetyl-piperidin-4-ylmethyl)-6-isopropyl-6,7-dihydro-5H-benzo[c]isoxazol-4-one]
24 | 11 µM | 74 nM | CC1(C)CC(=O)c2c(noc2Cc2ccc(C#N)c(F)c2)C1 [Cpd 37, 4-(6,6-Dimethyl-4-oxo-4,5,6,7-tetra hydro-benzo[c]isoxazol-3-ylmethyl)-2-fluoro-benzonitrile]

Row | SMILES | IC50 [1] | IC50 [2]
25 | CC1(C)CC(=O)c2c(noc2Cc2ccc(OCCCC(=O)N3CC[C@@H](O)C3)cc2)C1 [Cpd 84, 3-{4-[4-((R)-3-Hydroxy-pyrrolidin-1-yl)-4-oxo-butoxy]-benzyl}-6,6-dimethyl-6,7-dihydro-5H-benzo[c]isoxazol-4-one] | 6.9 µM | 69 nM
